From US8754220B2, “Quinolizidinone carboxamide M1 receptor positive allosteric modulators” (Merck Sharp & Dohme Corp., priority 2009, dated 2014)
pEC50: −log10 of the molar value. Read-outs that look alike come from different tables or passages of the source.

Target: T1, acetylcholine muscarinic M1 receptor (CHOnfat/hM1 cells) (Homo sapiens, UniProt P11229)
T1 construct: expressed in transfected cells; host or cells: CHOnfat (CHO cells; selected with Geneticin)
T1 sequence (P11229 1-460): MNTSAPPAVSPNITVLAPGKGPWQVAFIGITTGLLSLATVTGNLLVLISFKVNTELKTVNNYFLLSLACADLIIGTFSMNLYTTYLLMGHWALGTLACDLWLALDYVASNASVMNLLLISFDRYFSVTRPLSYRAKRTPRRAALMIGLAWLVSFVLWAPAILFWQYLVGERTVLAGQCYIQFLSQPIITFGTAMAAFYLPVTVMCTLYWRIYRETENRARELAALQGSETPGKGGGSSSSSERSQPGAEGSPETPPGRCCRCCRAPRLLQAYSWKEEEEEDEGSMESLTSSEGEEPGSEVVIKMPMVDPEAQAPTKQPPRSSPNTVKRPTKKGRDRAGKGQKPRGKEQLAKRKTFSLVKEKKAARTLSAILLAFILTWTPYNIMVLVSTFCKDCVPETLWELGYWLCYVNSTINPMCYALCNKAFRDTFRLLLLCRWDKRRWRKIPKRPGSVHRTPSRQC
Experiment: FLIPR intracellular calcium assay for M1 positive allosteric modulator activity (acetylcholine EC20)
Type: cell-based
Description: The assay studies the effect of one or several concentrations of test compounds on basal or acetylcholine-stimulated Ca^2+ levels using FLIPR.
Compounds are prepared and subjected to a preincubation period of 4 min. Thereafter, a single EC20 concentration of acetylcholine is added to each well (3 nM final). The intracellular Ca^2+ level of each sample is measured and compared to an acetylcholine control to determine any modulatory activity.
Cells: CHOnfat/hM1, hM2, hM3 or hM4 cells are plated 24 hr before the assay at a density of 18,000 cells/well (100 μL) in a 384 well plate. CHOnfat/hM1 and CHOnfat/hM3 Growth Medium: 90% DMEM (Hi Glucose); 10% HI FBS; 2 mM L-glutamine; 0.1 mM NEAA; Pen-Strep; and 1 mg/ml Geneticin, are added. For M2Gqi5CHOnfat and M4Gqi5CHOnfat cells, an additional 600 μg/ml hygromycin is added.
Equipment: 384 well plate, 120 μL addition plate; 96-well Whatman 2 ml Uniplate Incubator, 37° C., 5% CO2; Skatron EMBLA-384 Plate Washer; Multimek Pipetting System; Genesis Freedom 200 System; Mosquito System; Temo Nanoliter Pipetting System; and FLIPR^384 Fluorometric Imaging Plate Reader System are used.
Buffers. Assay Buffer: Hanks Balanced Salt Solution, with 20 mM Hepes, 2.5 mM Probenecid (Sigma P-8761) first dissolved in 1 N NaOH, 1% Bovine Serum Albumin (Sigma A-9647). Dye Loading Buffer: Assay Buffer plus 1% Fetal Bovine Serum and Fluo-4AM/Pluronic Acid Mixture. 2 mM Fluo-4AM ester stock in DMSO (Molecular Probes F-14202) Concentration of 2 μM in buffer for a final concentration of 1 μM in Assay. 20% Pluronic Acid Solution stock, with concentration of 0.04% in Buffer, 0.02% in Assay.
65 μL of 2 mM Fluo-4AM are mixed with 130 μL of 20% Pluronic Acid. The resulting solution and 650 μL FBS is added to the assay buffer for a total volume of 65 mL. Positive Controls: 4-Br-A23187: 10 mM in DMSO; final concentration 10 μM. Acetylcholine: 10 mM in water, working stock at both 20 μM and 30 μM in assay buffer, final concentration of 10 μM. This is used to check the maximum stimulation of the CHOK1/hM1 cells. 20 μM (2×) acetylcholine is added in the preincubation part of the assay, and the 30 μM (3×) stock is added in the second part. (EC20) Acetylcholine: 10 mM in water, working stock of 9 nM (3×), and final concentration in assay is 3 nM. This is used after the preincubation with test compounds. Addition of the EC20 Acetylcholine to each well with a test compound will ascertain any modulator activity. 24 wells contain 3 nM Acetylcholine alone as a control.
Screening Plate: Compounds are titrated in 96-well plates (columns 2-11), 100% DMSO, started at a concentration of 15 mM (150× stock concentration), and 3-fold serial dilutions using Genesis Freedom200 System. Four 96-well plates are combined into a 384-well plate using Mosquito Nanoliter Pipetting System by transferring 1 μl of serial diluted compounds to each well, and 1 mM acetylcholine (100× stock concentration) were added as a control. Using Temo, 49 μl assay buffer is added to each well of the 384-well plate right before assay.
In a 96-well Whatman 2 ml Uniplate, 9 nM Acetylcholine (3×) is pipetted into wells corresponding to the screening compounds, and into control wells. The 30 μM acetylcholine control (3×) is added into control wells, and the 3× agonist plate is transferred into a 384 well plate.
Cells are washed three times with 100 μL of buffer, leaving 30 μL of buffer in each well. Using Multimek, 30 μL of Dye Loading Buffer is added into each well and incubated at 37° C., 5% CO2 for up to one hr.
After 60 min, the cells are washed three times with 100 μL of buffer, leaving 30 μL of buffer in each well. The cell plate, screening plate, and agonist addition plates are placed on the platform in the FLIPR and the door closed. A signal test to check background fluorescence and basal fluorescence signal is performed. Laser intensity is adjusted if necessary. […]

[1] = CHOnfat/hM1 cells, 4 min preincubation, then EC20 acetylcholine (3 nM final), FLIPR Ca2+, read-out: IP Value (inflection point)

Question: How did the pEC50 [1] turn out when `COC(=O)N1CCC(NC(=O)c2cc(CN3CCC(C#N)(c4ccccn4)CC3)c3ccccn3c2=O)CC1` [Example 20, Methyl 4-[({1-[(4-cyano-4-pyridin-2-ylpiperidin-1-yl)methyl]-4-oxo-4H-quinolizin-3-yl}carbonyl)amino]piperidine-1-carboxylate] was run?
Answer: 6.22

Question: How did the pEC50 [1] turn out when `N#Cc1ccnc(C2(C#N)CCN(Cc3cc(C(=O)N[C@H]4CCCC[C@@H]4O)c(=O)n4ccccc34)CC2)c1` [Example 22, 1-{[4-Cyano-4-(4-cyanopyridin-2-yl)piperidin-1-yl]methyl}-N-[(1S,2S)-2-hydroxycyclohexyl]-4-oxo-4H-quinolizine-3-carboxamide] was run?
Answer: 6.55

Question: `N#CC1(c2cc(CF)ccn2)CCN(Cc2cc(C(=O)N[C@H]3CCCC[C@@H]3O)c(=O)n3ccccc23)CC1` [Example 23, 1-({4-Cyano-4-[4-(fluoromethyl)pyridine-2-yl]piperidin-1-yl}methyl)-N-[(1S,2S)-2-hydroxycyclohexyl]-4-oxo-4H-quinolizine-3-carboxamide] was tested. Which pEC50 did it give?
Answer: 7.47

Question: How did the pEC50 turn out when `N#CC1(c2cc(C(F)F)ccn2)CCN(Cc2cc(C(=O)N[C@H]3CCCC[C@@H]3O)c(=O)n3ccccc23)CC1` [Example 24, 1-({4-Cyano-4-[4-(difluoromethyl)pyridin-2-yl]piperidin-1-yl}methyl)-N-[(1S,2S)-2-hydroxycyclohexyl]-4-oxo-4H-quinolizine-3-carboxamide] was run?
Answer: 7.60

Question: `Cc1cccn2c(=O)c(C(=O)NC3CCOCC3)cc(CN3CCC(C#N)(c4ccccn4)CC3)c12` [Example 25, 1-[(4-Cyano-4-pyridin-2-ylpiperidin-1-yl)methyl]-9-methyl-4-oxo-N-(tetrahydro-2H-pyran-4-yl)-4H-quinolizine-3-carboxamide] was tested. Which pEC50 [1] did it give?
Answer: 5.68
